Source: US20230146455A1, “TREATMENT OF INFLAMMATORY DISEASES WITH PEPTIDES AND PHARMACEUTICAL COMPOSITIONS” (Yuyu Pharma, Inc., priority 2020, published 2023)
Values joined by “and” are separate entries in the source; they are usually repeats but may differ in a detail not shown here. Equal values may be shown once. Where a SMILES comes first, the peptide text is derived from it. [ ]: non-standard residue; d: D form. Hyp = O=C(O)[C@@H]1C[C@@H](O)CN1

Assays:
[1] = system: VEGF-A; test: Example 9 Luminex, LPS hPBMCs: VEGF-A; format: cell-based, human; conditions: Bead VEGF-A; for Concentration: dilution 2.0
Protocol: (§1) Treatment Human PBMCs were pretreated with YY-101, YDE-011 and YDE-043 or reference compound; Xiidra® at various concentration (ranging from 1 nM to 100 uM) for 2 h before stimulation. An equal volume of 0.5% DMSO was used as a vehicle control. Then, the cells were treated with LPS at 5 ug/ml. The supernatants from treated cells were harvested at 24 h and placed in a 96 well for Luminex cytokine & chemokine profiling using a Luminex 200 multiplex assay (Luminex; R&D system, USA).
(§2) The main study arm with triplicate wells per group in a 24-well plate: • 1. Blank • 2. PBMC: 0.5% DMSO • 3. PBMC+LPS (5 ug/ml) • 4. PBMC+YY-101 100 uM • 5. PBMC+YY-101 10 uM • 6. PBMC+YY-101 1 uM • 7. PBMC+YY-101 0.1 uM • 8. PBMC+YY-101 0.01 uM • 9. PBMC+LPS (5 ug/ml)+Xiidra®100 uM • 10. PBMC+LPS (5 ug/ml)+Xiidra® 10 uM • 11. PBMC+LPS (5 ug/ml)+Xiidra® 1 uM • 12. PBMC+LPS (5 ug/ml)+Xiidra®0.1 uM • 13. PBMC+LPS (5 ug/ml)+Xiidra®0.01 uM • 14. PBMC+LPS (5 ug/ml)+Xiidra®0.001 uM • 15. PBMC+LPS (5 ug/ml)+YY-101 100 uM • 16. PBMC+LPS (5 ug/ml)+YY-101 10 uM • 17. PBMC+LPS (5 ug/ml)+YY-101 1 uM • 18. PBMC+LPS (5 ug/ml)+YY-101 0.1 uM • 19. PBMC+LPS (5 ug/ml)+YY-101 0.01 uM • 20. PBMC+LPS (5 ug/ml)+YY-101 0.001 uM • 21. PBMC+LPS (5 ug/ml)+YDE-011 100 uM • 22. PBMC+LPS (5 ug/ml)+YDE-011 10 uM • 23. PBMC+LPS (5 ug/ml)+YDE-011 1 uM • 24. PBMC+LPS (5 ug/ml)+YDE-011 0.1 uM • 25. PBMC+LPS (5 ug/ml)+YDE-011 0.01 uM • 26. PBMC+LPS (5 ug/ml)+YDE-011 0.001 uM • 27. PBMC+LPS (5 ug/ml)+YDE-043 100 uM • 28. PBMC+LPS (5 ug/ml)+YDE-043 10 uM • 29. PBMC+LPS (5 ug/ml)+YDE-043 1 uM • 30. PBMC+LPS (5 ug/ml)+YDE-043 0.1 uM • 31. PBMC+LPS (5 ug/ml)+YDE-043 0.01 uM • 32. PBMC+LPS (5 ug/ml)+YDE-043 0.001 uM
(§3) Multiplex assay was used to measure 30 cytokines and chemokines. The 1:2, 1:10 and 1:200 diluted cell supernatant and serial dilution of the standard were dispensed into a 96 well plate at 50 ul/well. Then, the pre-mixed cocktail of antibody-coated magnetic beads was dispensed at 50 ul/well and incubated at room temperature for 2 h in a horizontal orbital microplate shaker at 800±500 rpm. The beads were washed using a magnetic device to prevent loss. The biotin-antibody was dispensed in 50 ul of each well and incubated at room temperature for 1 h in a shaker at 800±500 rpm. After washing, streptavidin-PE was added at 50 ul/well and incubated at room temperature for 30 min in a shaker under the same conditions. Finally, after washing, wash buffer (100 ul/well) was added to the plate and incubated in a shaker for 2 min. The Luminex™ 200 setting were set according to the manufacturer's protocol. The data was calculated with a standard five-parameter logistic nonlinear regression analysis of the data (xPonent software 4.2, USA). The levels of cytokine/chemokine are normalized to the live cell counts (1×10^5 cells/mL) and presented as concentrations per mL (pg/mL or ng/mL).

[2] = system: IL-1 alpha; test: Example 9 Luminex, LPS hPBMCs: IL-1 alpha; format: cell-based, human; conditions: IL-1 alpha, replicates and Mean
Protocol: as §1, §2, §3

[3] = PBMC + LPS(5 ug/ml) + test article 0.001 uM, Mean
[4] = PBMC + LPS(5 ug/ml) + test article 0.001 uM, single replicates
[5] = PBMC + LPS(5 ug/ml) + test article 0.01 uM, Mean
[6] = PBMC + LPS(5 ug/ml) + test article 0.01 uM, single replicates
[7] = PBMC + LPS(5 ug/ml) + test article 0.1 uM, Mean
[8] = PBMC + LPS(5 ug/ml) + test article 0.1 uM, single replicates
[9] = PBMC + LPS(5 ug/ml) + test article 1 uM, Mean
[10] = PBMC + LPS(5 ug/ml) + test article 1 uM, single replicates
[11] = PBMC + LPS(5 ug/ml) + test article 10 uM, Mean
[12] = PBMC + LPS(5 ug/ml) + test article 10 uM, single replicates
[13] = PBMC + LPS(5 ug/ml) + test article 100 uM, Mean
[14] = PBMC + LPS(5 ug/ml) + test article 100 uM, single replicates
[15] = PBMC + LPS(5 ug/ml) + YDE043 0.001 uM
[16] = PBMC + LPS(5 ug/ml) + YDE043 0.001 uM, mean
[17] = PBMC + LPS(5 ug/ml) + YDE043 0.01 uM
[18] = PBMC + LPS(5 ug/ml) + YDE043 0.01 uM, mean
[19] = PBMC + LPS(5 ug/ml) + YDE043 0.1 uM
[20] = PBMC + LPS(5 ug/ml) + YDE043 0.1 uM, mean
[21] = PBMC + LPS(5 ug/ml) + YDE043 1 uM
[22] = PBMC + LPS(5 ug/ml) + YDE043 1 uM, mean
[23] = PBMC + LPS(5 ug/ml) + YDE043 10 uM
[24] = PBMC + LPS(5 ug/ml) + YDE043 10 uM, mean
[25] = PBMC + LPS(5 ug/ml) + YDE043 100 uM
[26] = PBMC + LPS(5 ug/ml) + YDE043 100 uM, mean

## CC(C)C[C@H](NC(=O)[C@H](CCC(N)=O)NC(=O)CNC(=O)[C@@H]1C[C@@H](O)CN1)C(=O)NCC(=O)O [YDE-043] (H-[Hyp]GQLG-OH; N-terminus and C-terminus assumed)
[1]; [3]
  conc/live cell: 0.7 pg/10^5
  Concentration: 3.6 pg/mL
[1]; [4]
  Concentration: 3.6 pg/mL
  conc/live cell: 0.8 pg/10^5 (2×) and 0.6 pg/10^5
[1]; [5]
  conc/live cell: 0.1 pg/10^5
  Concentration: 0.6 pg/mL
[1]; [6]
  Concentration: 0.6 pg/mL
  conc/live cell: 0.1 pg/10^5
[1]; [7]
  conc/live cell: 0.1 pg/10^5
  Concentration: 0.6 pg/mL
[1]; [8]
  Concentration: 0.6 pg/mL
  conc/live cell: 0.1 pg/10^5
[1]; [9]
  conc/live cell: 0.8 pg/10^5
  Concentration: 4.4 pg/mL
[1]; [10]
  Concentration: 6.1 pg/ml and 3.6 pg/ml (2×)
  conc/live cell: 1.1 pg/10^5 and 0.7 pg/10^5 (2×)
[1]; [11]
  conc/live cell: 0.7 pg/10^5
  Concentration: 5.5 pg/mL
[1]; [12]
  Concentration: 6.1 pg/mL and 4.9 pg/mL
  conc/live cell: 0.0 pg/10^5 and 1.1 pg/10^5 and 0.9 pg/10^5
[1]; [13]
  conc/live cell: 0.4 pg/10^5
  Concentration: 4.9 pg/mL
[1]; [14]
  Concentration: 4.9 pg/mL
  conc/live cell: 0.8 pg/10^5 and 0.0 pg/10^5
[2]; [15]
  Concentration: 339.1 pg/mL and 369.6 pg/mL and 357.7 pg/mL
  conc/live cell: 77.1 pg/10^5 and 61.6 pg/10^5 and 77.8 pg/10^5
[2]; [16]
  Concentration: 355.5 pg/mL
  conc/live cell: 72.1 pg/10^5
[2]; [17]
  Concentration: 352.5 pg/mL and 342.5 pg/mL and 370.4 pg/mL
  conc/live cell: 78.3 pg/10^5 and 51.9 pg/10^5 and 74.1 pg/10^5
[2]; [18]
  Concentration: 355.1 pg/mL
  conc/live cell: 68.1 pg/10^5
[2]; [19]
  Concentration: 361.4 pg/mL and 329.0 pg/mL and 382.6 pg/mL
  conc/live cell: 72.3 pg/10^5 and 58.8 pg/10^5 and 68.3 pg/10^5
[2]; [20]
  Concentration: 357.7 pg/mL
  conc/live cell: 66.5 pg/10^5
[2]; [21]
  Concentration: 344.7 pg/mL and 332.4 pg/mL and 338.7 pg/mL
  conc/live cell: 59.4 pg/10^5 and 69.2 pg/10^5 and 63.9 pg/10^5
[2]; [22]
  Concentration: 338.6 pg/mL
  conc/live cell: 64.2 pg/10^5
[2]; [23]
  Concentration: 357.4 pg/mL and 342.1 pg/mL and 351.0 pg/mL
  conc/live cell: 68.7 pg/10^5 and 63.3 pg/10^5 and 62.7 pg/10^5
[2]; [24]
  Concentration: 350.2 pg/mL
  conc/live cell: 64.9 pg/10^5
[2]; [25]
  Concentration: 454.5 pg/mL and 414.4 pg/mL
  conc/live cell: 73.3 pg/10^5 and 64.7 pg/10^5
[2]; [26]
  Concentration: 434.4 pg/mL
  conc/live cell: 69.0 pg/10^5
